A value given as a limit tells only on which side of the number the result lay.

The results in this text go back to PMC7830743 (Journal of medicinal chemistry, 2020).

The test system of data set [1] is A673 cells. As to the kind of experiment: Cellular lactate production assay in A673 cells. In kind it is cell-based, human. To be noted: for IC50: Homo sapiens, A673, 0.5 h, read-out: A673 cells lactate inh. IC50.
For data set [2], the system named is A673 cells. As to the kind of experiment: Cytotoxicity assay in A673 cells. The data set is classed as cell-based, human. The following applies: for IC50: Homo sapiens, A673, 48 h, read-out: A673 cells Cytotox. IC50.
The test system of data set [3] is MiaPaCa-2 cells. The data set can be described thus: Cytotoxicity assay in MiaPaCa-2 cells. In kind it is cell-based. The following applies: Homo sapiens, MIA PaCa-2, 48 h, read-out: MiaPaCa-2 cells Cytotox. IC50.
The target of data set [4] is LDHA (Homo sapiens, UniProt P00338). The data set can be described thus: Biochemical LDHA inhibition assay.
The test system of data set [5] is MiaPaCa-2 cells. As to the kind of experiment: Cellular lactate production assay in MiaPaCa-2 cells. In kind it is cell-based. To be noted: Homo sapiens, MIA PaCa-2, 0.5 h, read-out: MiaPaCa-2 cells lactate inh. IC50.
The target in data set [6] is LDHA with C-terminal HiBiT fusion tag (Homo sapiens, UniProt P00338). The data set can be described thus: SplitLuc CETSA. The data set is classed as cell-based.
Data set [7] deals with tumor LDH activity (A673 flank xenograft). The data set can be described thus: In vivo LDHA activity in A673 xenograft tumor mouse model. The following applies: single IV 50 mg/kg, A673 xenograft mice.
A short description of data set [8]: Mouse pharmacokinetic studies. In kind it is in vivo, CD1 mice. The following applies: male, CD1, mouse, plasma, iv, 10 mg/kg.
The mark [9] stands for this setting: both cell lines (A673 and MiaPaCa-2).

For `Cc1ccc(C#Cc2cccc(-c3nn(-c4nc(C(=O)O)cs4)c(C4CC45CC5)c3Cc3ccc(S(N)(=O)=O)c(F)c3)c2)s1` (stereo not shown) [Compound 87, 2-(4-(3-Fluoro-4-sulfamoylbenzyl)-3-(3-((5-methylthiophen-2-yl)ethynyl)phenyl)-5-(spiro[2.2]pentan-1-yl)-1H-pyrazol-1-yl)-thiazole-4-carboxylic Acid], the IC50 in data set [1] worked out at 485 nM; in data set [2] it was 526 nM; in data set [3] it was 469 nM; in data set [4], 122 nM; in data set [5], 459 nM; in data set [6], 175 nM.

For the compound `Cc1ccc(C#Cc2cccc(-c3nn(-c4nc(C(=O)O)cs4)c(C(C4CC4)C4CC4)c3Cc3ccc(S(N)(=O)=O)c(F)c3)c2)s1` [Compound 89, 2-(5-(Dicyclopropylmethyl)-4-(3-fluoro-4-sulfamoylbenzyl)-3-(3-((5-methylthiophen-2-yl)ethynyl)phenyl)-1H-pyrazol-1-yl)thiazole-4-carboxylic Acid], the half-maximal inhibitory concentration (IC50) worked out at 1860 nM in data set [1]; 26400 nM in data set [2]; 5270 nM in data set [4]; 1220 nM in data set [5]; 3180 nM in data set [6].

With `Cc1cc(C#Cc2cccc(-c3nn(-c4nc(C(=O)O)cs4)c(CCC4CC4)c3Cc3ccc(S(N)(=O)=O)c(F)c3)c2)cs1` [Compound 77, 2-(5-(2-Cyclopropylethyl)-4-(3-fluoro-4-sulfamoylbenzyl)-3-(3-((5-methylthiophen-3-yl)ethynyl)phenyl)-1H-pyrazol-1-yl)thiazole-4-carboxylic Acid], the IC50 was determined as 434 nM in data set [1]; 197 nM in data set [2]; 160 nM in data set [4]; 254 nM in data set [5]; 142 nM in data set [6].

With `NS(=O)(=O)c1ccc(Cc2c(-c3ccc(F)c(C#CC4(F)CCCC4)c3)nn(-c3nc(C(=O)O)cs3)c2CC2CC2)cc1F` [Compound 24, 2-(5-(Cyclopropylmethyl)-3-(4-fluoro-3-((1-fluorocyclopentyl)-ethynyl)phenyl)-4-(3-fluoro-4-sulfamoylbenzyl)-1H-pyrazol-1-yl)-thiazole-4-carboxylic Acid], the half-maximal inhibitory concentration (IC50) in data set [1] is 450 nM; in data set [2] it was 689 nM; in data set [3], 593 nM; in data set [4], 33 nM; in data set [5] it was 454 nM; in data set [6], 95 nM.

For the compound `Cc1ccc(C#Cc2cc(-c3nn(-c4nc(C(=O)O)cs4)c(CCC4CC4)c3Cc3ccc(S(N)(=O)=O)c(F)c3)ccc2F)s1` [Compound 74, 2-(5-(2-Cyclopropylethyl)-3-(4-fluoro-3-((5-methylthiophen-2yl)ethynyl)phenyl)-4-(3-fluoro-4-sulfamoylbenzyl)-1H-pyrazol-1-yl)thiazole-4-carboxylic Acid], in data set [7], the “effect on LDH activity in tumors (in words)” value (from here on “effect on LDH activity”) was “moderate inhibition”. For the same compound, in data set [8], the AUC(0-t) was 6650 ng·h/mL and the clearance was 74.7 mL/min/kg.

On to `Cc1ccc(C#Cc2cccc(-c3nn(-c4nc(C(=O)O)cs4)c(C4CC4C4CC4)c3Cc3ccc(S(N)(=O)=O)c(F)c3)c2)s1` (stereo not shown) [Compound 88, 2-(5-([1,1′-Bi(cyclopropan)]-2-yl)-4-(3-fluoro-4-sulfamoylbenzyl)-3-(3-((5-methylthiophen-2-yl)ethynyl)phenyl)-1H-pyrazol-1-yl)thiazole-4-carboxylic Acid], for which the IC50 amounted to 364 nM in data set [1]; 4690 nM in data set [2]; 1170 nM in data set [4]; 515 nM in data set [5]; 1030 nM in data set [6].

Turning to `Cc1ccc(C#Cc2cccc(-c3nn(-c4nc(C(=O)O)cs4)c(C(C)C4CC4)c3Cc3ccc(S(N)(=O)=O)c(F)c3)c2)s1` (stereo not shown) [Compound 84, 2-(5-(1-Cyclopropylethyl)-4-(3-fluoro-4-sulfamoylbenzyl)-3-(3-((5-methylthiophen-2-yl)ethynyl)phenyl)-1H-pyrazol-1-yl)thiazole-4-carboxylic Acid], the half-maximal inhibitory concentration (IC50) in data set [1] worked out at 685 nM; in data set [2] it was 968 nM; in data set [4], 874 nM; in data set [5], 1030 nM; in data set [6] it was 708 nM.

On to `Cc1ccc(C#Cc2cccc(-c3nn(-c4nc(C(=O)O)cs4)c(C(C)(C)C4CC4)c3Cc3ccc(S(N)(=O)=O)c(F)c3)c2)s1` [Compound 85, 2-(5-(2-Cyclopropylpropan-2-yl)-4-(3-fluoro-4-sulfamoylbenzyl)-3-(3-((5-methylthiophen-2-yl)ethynyl)phenyl)-1H-pyrazol-1-yl)-thiazole-4-carboxylic Acid], for which the IC50 in data set [1] came out at 18300 nM; in data set [2], 5900 nM; in data set [4] it was 4540 nM; in data set [5], 5140 nM; in data set [6], 10800 nM.

For `Cc1ccc(C#Cc2cccc(-c3nn(-c4nc(C(=O)O)cs4)c(CC4(C)CC4)c3Cc3ccc(S(N)(=O)=O)c(F)c3)c2)s1` [Compound 86, 2-(4-(3-Fluoro-4-sulfamoylbenzyl)-5-((1-methylcyclopropyl)-methyl)-3-(3-((5-methylthiophen-2-yl)ethynyl)phenyl)-1H-pyrazol-1-yl)thiazole-4-carboxylic Acid], the half-inhibitory concentration (IC50) in data set [1] was 346 nM; in data set [2] it was 590 nM; in data set [4], 307 nM; in data set [5], 409 nM; in data set [6] it was 251 nM.

`Cc1ccc(C#Cc2cccc(-c3nn(-c4nc(C(=O)O)cs4)c(CC4CC4)c3Cc3ccc(S(N)(=O)=O)c(F)c3)c2)o1` [Compound 61, 2-(5-(Cyclopropylmethyl)-4-(3-fluoro-4-sulfamoylbenzyl)-3-(3-((5-methylfuran-2-yl)ethynyl)phenyl)-1H-pyrazol-1-yl)thiazole-4-carboxylic Acid] came in with a clearance at 24 h in data set [8] of 72.3 mL/min/kg.

The compound `Cc1ccc(C#Cc2cc(-c3nn(-c4nc(C(=O)O)cs4)c(CC4CC4)c3Cc3ccc(S(N)(=O)=O)c(F)c3)ccc2F)o1` [Compound 44, 2-(5-(Cyclopropylmethyl)-3-(4-fluoro-3-((5-methylfuran-2-yl)-ethynyl)phenyl)-4-(3-fluoro-4-sulfamoylbenzyl)-1H-pyrazol-1-yl)-thiazole-4-carboxylic Acid] yielded a clearance at 24 h in data set [8] of 75 mL/min/kg.

Take `C#Cc1cc(-c2nn(-c3nc(C(=O)O)cs3)c(CC3CC3)c2Cc2ccc(S(N)(=O)=O)c(F)c2)ccc1F` [Compound 11, 2-(5-(Cyclopropylmethyl)-3-(3-ethynyl-4-fluorophenyl)-4-(3-fluoro-4-sulfamoylbenzyl)-1H-pyrazol-1-yl)thiazole-4-carboxylic Acid]: the “loss in potency toward lactate output relative to 10” value in data set [1] (setting [9]) is < 2 fold. Besides, the “loss in potency in cytotoxicity relative to 10” value in data set [2] (setting [9]) is listed as < 3 fold.

With `Cc1ccc(C#Cc2cccc(-c3nn(-c4nc(C(=O)O)cs4)c(CCC4CC4)c3Cc3ccc(S(N)(=O)=O)c(F)c3)c2)s1` [Compound 75, 2-(5-(2-Cyclopropylethyl)-4-(3-fluoro-4-sulfamoylbenzyl)-3-(3-((5-methylthiophen-2-yl)ethynyl)phenyl)-1H-pyrazol-1-yl)thiazole-4-carboxylic Acid], in data set [8], the clearance at 24 h amounted to 18.6 mL/min/kg.

Consider `C/C=C/c1cc(-c2nn(-c3nc(C(=O)O)cs3)c(CC3CC3)c2Cc2ccc(S(N)(=O)=O)c(F)c2)ccc1F` [Compound 71, (E)-2-(5-(Cyclopropylmethyl)-3-(4-fluoro-3-(prop-1-en-1-yl)phenyl)-4-(3-fluoro-4-sulfamoylbenzyl)-1H-pyrazol-1-yl)thiazole-4carboxylic Acid], for which, in data set [7], the “effect on LDH activity” value is “less effects”.

For `NS(=O)(=O)c1ccc(Cc2c(-c3ccc(F)c(/C=C/C4CCCC4)c3)nn(-c3nc(C(=O)O)cs3)c2CC2CC2)cc1F` [Compound 69, (E)-2-(3-(3-(2-Cyclopentylvinyl)-4-fluorophenyl)-5-(cyclopropylmethyl)-4-(3-fluoro-4-sulfamoylbenzyl)-1H-pyrazol-1-yl)thiazole-4-carboxylic Acid], the “effect on LDH activity” value in data set [7] is listed as “less effects”. This compound also registered a clearance at 24 h in data set [8] of 74.7 mL/min/kg.

As to `Cc1ncc(C#Cc2cc(-c3nn(-c4nc(C(=O)O)cs4)c(CC4CC4)c3Cc3ccc(S(N)(=O)=O)c(F)c3)ccc2F)s1` [Compound 46, 2-(5-(Cyclopropylmethyl)-3-(4-fluoro-3-((2-methylthiazol-5-yl)-ethynyl)phenyl)-4-(3-fluoro-4-sulfamoylbenzyl)-1H-pyrazol-1-yl)-thiazole-4-carboxylic Acid], in data set [8], the clearance at 24 h came out at 97 mL/min/kg.

For the compound `C=C(c1cc(-c2nn(-c3nc(C(=O)O)cs3)c(CC3CC3)c2Cc2ccc(S(N)(=O)=O)c(F)c2)ccc1F)C(F)(F)F` [Compound 73, 2-(5-(Cyclopropylmethyl)-3-(4-fluoro-3-(3,3,3-trifluoroprop-1-en-2-yl)phenyl)-4-(3-fluoro-4-sulfamoylbenzyl)-1H-pyrazol-1-yl)-thiazole-4-carboxylic Acid], the IC50 in data set [1] came to 713 nM; in data set [2] it was 16000 nM; in data set [4] it was 39 nM; in data set [5], 972 nM; in data set [6] it was 398 nM.

For the compound `NS(=O)(=O)c1ccc(Cc2c(-c3cccc(C#Cc4ccc(C5CC5)s4)c3)nn(-c3nc(C(=O)O)cs3)c2CC2CC2)cc1F` [Compound 56, 2-(5-(Cyclopropylmethyl)-3-(3-((5-cyclopropylthiophen-2-yl)-ethynyl)phenyl)-4-(3-fluoro-4-sulfamoylbenzyl)-1H-pyrazol-1-yl)-thiazole-4-carboxylic Acid], the “effect on LDH activity” value in data set [7] is “moderate inhibition”. Moreover, the “inhibition of tumor LDH activity at 6 h postdose” value in data set [7] (6 h) is on record as “failed to maintain significant inhibition”.
